The source of these data is patent EP2891491A1, “Use of (r)-phenylpiracetam for the treatment of sleep disorders” (Merz Pharma GmbH & Co. KGaA, priority 2014, dated 2015).

The conditions of test [1]: just slightly stronger with (R)- than with (S)-phenylpiracetam; cited from earlier work.
The test system of test [2] is subjects with Parkinson's Disease. Briefly: clinical study of EDS in Parkinson patients, Epworth Sleepiness Scale. The class given is in vivo, humans. The note with it: 50 mg bid for 4 weeks, oral, adjunct to L-Dopa. On the procedure: In a prospective, randomized, double-blind, placebo-controlled, parallel group, multicenter study the tolerability, safety and efficacy of (R)-Phenylpiracetam after oral administration adjunct to L-Dopa treatment is confirmed. After a screening period of one week 36 subjects with Parkinson's Disease receive 50 mg (R)-Phenylpiracetam or placebo bid at 8.00 am and 3.00 pm for 4 weeks. A safety follow-up is performed 1 week after the double-blind treatment period. Visits take place 1 week before randomization (V1, day -7), at baseline (V2, day 1), at Week 2 (V3) and Week 4 (V4). A safety follow-up (V5) is performed 1 week after the last intake of study medication. An assessment of excessive daily sleepiness using the Epworth Sleepiness Scale [ESS] takes place at screening, baseline, week 2 and week 4.
The questionnaire asks the subject to rate his or her probability of falling asleep on a scale of increasing probability from 0 to 3 for 8 different situations that most people engage in during their daily lives, though not necessarily every day (Johns et al. J Neurol Neurosurg Psychiatry. 2005;76(12):1636). The scores for the 8 questions are added together to obtain a single number. […]
The absolute change of ESS from day 1 to day 14 and 28 is analyzed.

The subject of the next test is rats. Kind of test: electroencephalography (EEG) screen in freely moving rats. The test is classed as in vivo. On the procedure:
EXAMPLE 5: Testing of (R)-phenylpiracetam in an electroencephaloaraphy (EEG) screen - Fig. 4
(R)-Phenylpiracetam was tested at four different concentrations (1 mg/kg, 12.5 mg/kg, 25 mg/kg, and 50 mg/kg) in an EEG screen as described by Dimpfel (Dimpfel, Neuropsychobiology, 58 (2008)178-86).
Eight adult Fisher 344 rats (8 months of age, kept on inverse light-dark cycle, weight about 400 g, provided by Charles River Laboratories, D-97633, Sulzfeld) were used in this experimental series. Animals were implanted with electrodes into the brain and were given two weeks for recovery from surgery. After this the transmitter was plugged in for adaptation and control experiments.
The animals were allowed to acclimatize for at least 4 weeks before the study started. There was automatic control of light cycle, temperature and humidity. Light hours were 18 h in the evening - 6 h in the morning. […] Cages, bedding, and water bottles were changed at regular intervals, i.e. every 2-3 days. Standard diet (Nohrlin H10, Altromin, D-32791 Lage, Germany) was available to the animals ad libitum. The animals had access to domestic quality mains water ad libitum.
Rats were implanted with 4 bipolar concentric steel electrodes within a stereotactic surgical procedure during anaesthesia with ketamine. All four electrodes were placed 3 mm lateral within the left hemisphere. Dorsoventral coordinates were 4, 6, 4.2 and 8 mm and anterior coordinates were 3.7, 9.7, 5.7 and 12.2 mm for frontal cortex, striatum, hippocampus, and reticular formation, respectively (according to the atlas of Paxinos and Watson, 1982). A pre-constructed base plate carrying 4 bipolar stainless steel semi-micro electrodes (neurological electrodes "SNF 100" from Rhodes Medical Instruments, Inc., Summerland, CA 93067, USA) and a 5-pin-plug was fixed to the skull by dental cement interacting with 3 steel screws placed on distance into the bone. The distant recording spot of the electrode was the active electrode whereas the proximal spots of the four electrodes were connected to each other to give a reference. The base plate was carrying a plug to receive later on the transmitter (weight: 5.2 g including battery, 26 mm x 12 mm x 6 mm of size).
EEG signals were recorded from frontal cortex, hippocampus, striatum and reticular formation of freely moving rats from inside a totally copper shielded room. Signals were wirelessly transmitted by a radio-telemetric system (Rhema Labortechnik, Hofheim, Germany, using 40 MHz as carrier frequency) and were amplified and processed as described earlier to give power spectra of 0.25 Hz resolution (Dimpfel et al. 1986; Dimpfel et al. 1988; Dimpfel et al. 1989; Dimpfel, 2003). […]

Test [3] has as its target T1, neuronal dopamine re-uptake transporter (Homo sapiens, UniProt Q01959).
T1 construct: expressed in transfected cells
Briefly: functional monoamine transporter assay: [3H]-dopamine uptake in CHO-K1 cells expressing dopamine transporters. The note with it: functional assays, read-out: affinity for the neuronal dopamine re-uptake transporter. The test is classed as cell-based. On the procedure:
Using functional monoamine transporter assays, we determined the potential drug targets for (R)-phenylpiracetam.
Recombinant Chinese hamster ovary (CHO) cells CHO-K1 (ATCC® CCL-61 ™) cells stably expressing dopamine transporters are plated. The cells (2 x 10^5/ml) are pre-incubated with test compound and/or vehicle in modified Tris-HEPES buffer pH 7.1 at 25°C for 20 min and 50 nM [^3H]-dopamine is then added for an additional 15 min incubation period. Non-specific signal is determined in the presence of 10 µM nomifensine. Cells are then solubilized with 1% SDS lysis buffer. Reduction of [^3H]-dopamine uptake by 50 percent or more (≥50%) relative to vehicle controls indicates significant inhibitory activity. Compounds are screened at 10, 1, 0.1, 0.01 and 0.001 µM. These same concentrations are concurrently applied to a separate group of untreated cells and evaluated for possible compound-induced cytotoxicity only if significant inhibition of uptake is observed.

For test [4] the following is noted: model for depression; cited from earlier work.
For test [5] the following is noted: in vivo; cited from earlier work.

Where “and” joins values, the source holds several entries; their conditions need not be identical. Equal values may be shown once.

T1 sequence (Q01959 whole entry): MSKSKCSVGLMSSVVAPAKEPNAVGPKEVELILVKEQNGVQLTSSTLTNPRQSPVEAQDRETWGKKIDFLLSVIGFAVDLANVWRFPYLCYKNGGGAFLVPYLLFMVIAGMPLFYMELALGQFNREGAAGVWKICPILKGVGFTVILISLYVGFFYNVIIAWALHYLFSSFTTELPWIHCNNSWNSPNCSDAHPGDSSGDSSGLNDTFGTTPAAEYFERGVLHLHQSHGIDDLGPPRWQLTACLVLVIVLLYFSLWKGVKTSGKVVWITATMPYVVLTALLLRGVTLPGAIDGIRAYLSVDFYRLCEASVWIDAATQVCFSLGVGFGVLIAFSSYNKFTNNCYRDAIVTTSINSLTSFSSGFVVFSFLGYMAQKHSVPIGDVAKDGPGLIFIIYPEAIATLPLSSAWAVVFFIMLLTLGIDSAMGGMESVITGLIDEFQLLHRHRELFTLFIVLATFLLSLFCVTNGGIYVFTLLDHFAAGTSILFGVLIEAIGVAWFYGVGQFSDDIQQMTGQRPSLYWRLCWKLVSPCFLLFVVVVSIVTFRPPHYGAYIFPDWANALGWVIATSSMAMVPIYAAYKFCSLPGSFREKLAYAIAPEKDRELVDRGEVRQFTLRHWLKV

For the compound `NC(=O)CN1C[C@@H](c2ccccc2)CC1=O` [(R)-phenylpiracetam], the “locomotor activity in the open-field test” value in test [1] is “significant increase”. Besides, in test [2], the “improvement of ESS (absolute change from day 1 to day 14 and 28)” value is “at least 3 points”. For the same compound, in the test on rats (EEG pattern compared with nootropics), the “theta, delta, alpha1 and beta2 waves in the reticular formation” value is given as “no change”. Further, the “alpha2 and beta1 waves” value in the test on rats (i.p., 1, 12.5, 25 and 50 mg/kg) was “dose dependent attenuation”. Moreover, in the test with rats (i.p., highest dosage), the “theta power within the frontal cortex” value is listed as “increases”. In addition, the Motility result in the test with rats (i.p., video tracking during EEG) is on record as “increased”. The IC50 in test [3] is ~13 µM and 13 µM. The “potency in the forced swim test” value in test [4] is “only slightly more potent than (S)-phenylpiracetam”. The “memory function in the passive avoidance test” value in test [5] was “enhanced memory function significantly better compared to (S)-phenylpiracetam”.
